Reference: ChEMBL document CHEMBL1201862, “PubChem BioAssay data set” (2004)
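Protocol summary: plate cells (96-well), add compound at 5 concentrations, incubate 48 h, interpolate endpoints linearly. The concentration for 50% growth inhibition is given as GI50.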 Calls of active or inactive are those of the source. Cut-off read from the data, not from the text of the source: active = GI50 up to about 1.1 µM and inactive = higher.

Key:
Experiment in all cases: inhibition of tumour cell growth, NCI panel, 48 h
MOLT-4 = tested on: MOLT-4
HL-60 = tested on: HL-60
MDA-MB-435 = tested on: MDA-MB-435
K562 = tested on: K562
Hs-578T = tested on: Hs-578T
SNB-75 = tested on: SNB-75
COLO 205 = tested on: COLO 205
SK-MEL-5 = tested on: SK-MEL-5
SNB-19 = tested on: SNB-19
SF-539 = tested on: SF-539
UACC-257 = tested on: UACC-257
EKVX = tested on: EKVX
OVCAR-3 = tested on: OVCAR-3
SN12C = tested on: SN12C
T47D = tested on: T47D
RXF 393 = tested on: RXF 393
NCI-H460 = tested on: NCI-H460
UO-31 = tested on: UO-31
OVCAR-5 = tested on: OVCAR-5
NCI-H226 = tested on: NCI-H226
RPMI-8226 = tested on: RPMI-8226
SF-295 = tested on: SF-295
HOP-62 = tested on: HOP-62
SK-OV-3 = tested on: SK-OV-3
MDA-N = tested on: MDA-N
MCF7 = tested on: MCF7
NCI-H23 = tested on: NCI-H23
HCC 2998 = tested on: HCC 2998
SF-268 = tested on: SF-268
SK-MEL-28 = tested on: SK-MEL-28
SW-620 = tested on: SW-620
NCI/ADR-RES = tested on: NCI/ADR-RES
OVCAR-4 = tested on: OVCAR-4
HCT-116 = tested on: HCT-116
DU-145 = tested on: DU-145
Malme-3M = tested on: Malme-3M
UACC-62 = tested on: UACC-62
HCT-15 = tested on: HCT-15
PC-3 = tested on: PC-3
ACHN = tested on: ACHN
SK-MEL-2 = tested on: SK-MEL-2
IGROV-1 = tested on: IGROV-1
M14 = tested on: M14
HT-29 = tested on: HT-29
A549 = tested on: A549
786-0 = tested on: 786-0
MDA-MB-231 = tested on: MDA-MB-231
KM12 = tested on: KM12
TK-10 = tested on: TK-10
U-251 = tested on: U-251
OVCAR-8 = tested on: OVCAR-8
LOX IMVI = tested on: LOX IMVI
A498 = tested on: A498
CAKI-1 = tested on: CAKI-1
HOP-92 = tested on: HOP-92
CCRF-CEM = tested on: CCRF-CEM
NCI-H522 = tested on: NCI-H522

With CN(C)CCSC1=Nc2ccc(Cl)cc2C(c2ccccc2Cl)=NC1 the GI50 (MOLT-4) was 33.3 µM (inactive), the GI50 (HL-60) was 19.3 µM (inactive) and the GI50 (MDA-MB-435) was 13.8 µM (inactive). For the same molecule, the GI50 (K562) was 20.5 µM (inactive), the GI50 (Hs-578T) was 18.6 µM (inactive) and the GI50 (SNB-75) was 18.2 µM (inactive).
With Nc1ncnc2c1ncn2C1CCC(CP(=O)(O)O)C1 (stereo not given) the GI50 (COLO 205) was > 100 µM (inactive), the GI50 (SK-MEL-5) was > 100 µM (inactive) and the GI50 (SNB-19) was > 100 µM (inactive). For the same molecule, the GI50 (SF-539) was > 100 µM (inactive), the GI50 (UACC-257) was > 100 µM (inactive) and the GI50 (EKVX) was > 100 µM (inactive). For the same molecule, the GI50 (OVCAR-3) was > 100 µM (inactive), the GI50 (SN12C) was > 100 µM (inactive) and the GI50 (T47D) was > 100 µM (inactive). The GI50 (RXF 393) was > 100 µM (inactive), the GI50 (NCI-H460) was > 100 µM (inactive) and the GI50 (UO-31) was > 100 µM (inactive). The GI50 (OVCAR-5) was > 100 µM (inactive), the GI50 (NCI-H226) was > 100 µM (inactive) and the GI50 (RPMI-8226) was > 100 µM (inactive). The GI50 (SF-295) was > 100 µM (inactive), the GI50 (HOP-62) was > 100 µM (inactive) and the GI50 (SK-OV-3) was > 100 µM (inactive). The GI50 (MDA-N) was > 100 µM (inactive), the GI50 (MCF7) was > 100 µM (inactive) and the GI50 (HL-60) was > 100 µM (inactive). For the same molecule, the GI50 (NCI-H23) was > 100 µM (inactive), the GI50 (HCC 2998) was > 100 µM (inactive) and the GI50 (SF-268) was > 100 µM (inactive). For the same molecule, the GI50 (SK-MEL-28) was > 100 µM (inactive), the GI50 (MDA-MB-435) was > 100 µM (inactive) and the GI50 (SW-620) was > 100 µM (inactive). The GI50 (NCI/ADR-RES) was > 100 µM (inactive), the GI50 (OVCAR-4) was > 100 µM (inactive) and the GI50 (HCT-116) was > 100 µM (inactive). For the same molecule, the GI50 (DU-145) was > 100 µM (inactive), the GI50 (Malme-3M) was > 100 µM (inactive) and the GI50 (UACC-62) was > 100 µM (inactive). For the same molecule, the GI50 (Hs-578T) was > 100 µM (inactive), the GI50 (HCT-15) was > 100 µM and the GI50 (PC-3) was > 100 µM (inactive). The GI50 (ACHN) was > 100 µM (inactive), the GI50 (SK-MEL-2) was > 100 µM (inactive) and the GI50 (IGROV-1) was > 100 µM (inactive). The GI50 (M14) was > 100 µM (inactive), the GI50 (HT-29) was > 100 µM (inactive) and the GI50 (A549) was > 100 µM (inactive). The GI50 (786-0) was > 100 µM (inactive), the GI50 (MDA-MB-231) was > 100 µM (inactive) and the GI50 (KM12) was > 100 µM (inactive). The GI50 (TK-10) was > 100 µM (inactive), the GI50 (U-251) was > 100 µM (inactive) and the GI50 (OVCAR-8) was > 100 µM (inactive). For the same molecule, the GI50 (LOX IMVI) was > 100 µM (inactive).
COc1cc2c3c([nH]c2c(OC)c1OC)CCN(Cc1ccccc1)C3 was tested, and the GI50 (COLO 205) was 17 µM (inactive), the GI50 (SK-MEL-5) was 18.9 µM (inactive) and the GI50 (SNB-19) was 3.07 µM (inactive). The GI50 (SF-539) was 17.7 µM (inactive), the GI50 (UACC-257) was 19.9 µM (inactive) and the GI50 (EKVX) was > 100 µM (inactive). For the same molecule, the GI50 (MOLT-4) was 25.1 µM (inactive), the GI50 (OVCAR-3) was 64.6 µM (inactive) and the GI50 (SN12C) was 45.6 µM (inactive). For the same molecule, the GI50 (T47D) was 24.8 µM (inactive), the GI50 (RXF 393) was > 100 µM (inactive) and the GI50 (NCI-H460) was 14.9 µM (inactive). For the same molecule, the GI50 (OVCAR-5) was 23.8 µM (inactive), the GI50 (A498) was 22.3 µM (inactive) and the GI50 (NCI-H226) was 20.9 µM (inactive). For the same molecule, the GI50 (RPMI-8226) was 18.5 µM (inactive), the GI50 (CAKI-1) was 0.787 µM (active) and the GI50 (SF-295) was 30.8 µM (inactive). For the same molecule, the GI50 (HOP-62) was 93.5 µM (inactive), the GI50 (HOP-92) was 6.27 µM (inactive) and the GI50 (MDA-N) was 16.9 µM (inactive). The GI50 (MCF7) was 18.1 µM (inactive), the GI50 (HL-60) was 21.4 µM (inactive) and the GI50 (NCI-H23) was 33.1 µM (inactive). For the same molecule, the GI50 (HCC 2998) was 17.9 µM (inactive), the GI50 (SF-268) was 62.5 µM (inactive) and the GI50 (SK-MEL-28) was 21.6 µM (inactive). The GI50 (MDA-MB-435) was 15.6 µM (inactive), the GI50 (SW-620) was 1.95 µM (inactive) and the GI50 (NCI/ADR-RES) was 29.9 µM (inactive). The GI50 (K562) was 20.2 µM (inactive), the GI50 (OVCAR-4) was 64.7 µM (inactive) and the GI50 (CCRF-CEM) was 17.7 µM (inactive). For the same molecule, the GI50 (HCT-116) was 33.9 µM (inactive), the GI50 (DU-145) was > 100 µM (inactive) and the GI50 (Malme-3M) was 16.6 µM (inactive). The GI50 (UACC-62) was 32.3 µM (inactive), the GI50 (Hs-578T) was 32.4 µM (inactive) and the GI50 (HCT-15) was 31.9 µM. The GI50 (PC-3) was 55.1 µM (inactive), the GI50 (ACHN) was 47.8 µM (inactive) and the GI50 (SK-MEL-2) was 22.6 µM (inactive). The GI50 (IGROV-1) was 57.7 µM (inactive), the GI50 (SNB-75) was 42.1 µM (inactive) and the GI50 (M14) was 14.1 µM (inactive). For the same molecule, the GI50 (HT-29) was 11.4 µM (inactive), the GI50 (A549) was 86.7 µM (inactive) and the GI50 (786-0) was 22.3 µM (inactive). The GI50 (MDA-MB-231) was 32.8 µM (inactive), the GI50 (KM12) was > 100 µM (inactive) and the GI50 (NCI-H522) was > 100 µM (inactive). The GI50 (TK-10) was 21.7 µM (inactive), the GI50 (U-251) was 31.8 µM (inactive) and the GI50 (OVCAR-8) was > 100 µM (inactive). The GI50 (LOX IMVI) was 16.3 µM (inactive).
